Laboratory results published in patent US6310091A, “Fungicidal saponin, CAY-1, and isolation thereof from Capsium species fruit” (The United States of America as represented by the …, priority 2000, dated 2001).
Where “and” joins values, the source holds several entries; their conditions need not be identical. Equal values may be shown once. Read-outs that look alike come from different tables or passages of the source.

Columns and labels:
Aspergillus parasiticus = experiment: Fungicidal bioassay on nongerminated and germinating conidia of A. parasiticus; format: cell-based; conditions: for activity at 5 µM / activity at 10 µM / activity at 15 µM / activity at 20 µM / minimal effective concentration: Aspergillus parasiticus, 0.5 h; for activity at 5 µM / activity at 10 µM / activity at 15 µM / activity at 20 µM: read-out: Percent of Mean Control; for viability reduction: 20.0 μM (24.8 μg/ml)
Method: (§1) 1. Filamentous fungi. Filamentous fungi used in bioassays included Aspergillus flavus, A. fumigatus, A. niger, A. parasiticus and Fusarium oxysporum. The fungicidal properties of CAY-1 for the nongerminated and germinating conidia of these fungi were determined separately as described by De Lucca et al. [Med. Mycol., 36:291-298 (1998)] and De Lucca et al. [Antimicrob. Agents Chemother. 43:371-373 (1999)]. […] Two separate experiments were conducted in each medium (n=8 per medium).
(§2) A suspension of the aforementioned fungi were prepared separately in the appropriate medium. Conidia (10^4 conidia/ml) were used immediately for the nongerminated conidial assays while conidia (10^5 conidia/ml) were incubated for 7.5 hours at 30° C. to obtain germinating conidia. Serial dilutions of CAY-1 were prepared in the appropriate medium (totaling 225 μl) to which was added 25 μl of the conidial suspensions. The control consisted of 225 μl of medium and 25 μl of the conidial suspension. After mixing, the samples were incubated for 30 min (30° C.). Samples were then spread on potato dextrose agar plates which were incubated at 30° C. for 24 hours. Colonies were then enumerated.
(§3) Statistical analyses. ANOVA analyses on ranks for nonparametric data were performed for the bioassays described in this example.

Aspergillus niger = experiment: Fungicidal bioassay on nongerminated and germinating conidia of A. niger; format: cell-based; conditions: for activity at 5 µM / activity at 10 µM / activity at 15 µM / activity at 20 µM / activity at 1 µM / activity at 2.5 µM: read-out: Percent of Mean Control
Method: as §1, §2, §3

[1] = Mammalian cytotoxicity, HeLa cells (neutral red); format: cell-based, Human; conditions: human, hela cells
Method: (§4) 1. HeLa cells. Human epitheloid cervical carcinoma cells (ATCC2.2CCL) were grown in MEM media (Mediatech), supplemented with fetal bovine sera and penicillin (De Lucca et al., Antimicrob. Agents Chemother., 1999, 43:371-373). The cells were rinsed with PBS and harvested using trypsin. Cell count was determined manually using trypan blue and cells were diluted to a final concentration of 2.5×10^5 […]. Aliquots of 100 μl were dispensed per well into a 96-well plate. Cells were incubated overnight (18-24 hours) at 37° C. in a humidified 5% (v/v) CO2 environment. Neutral red dye solution was then added to each well culture and re-incubated for 3 hours. Two-fold serial dilutions of CAY-1 were prepared and aliquoted to final concentrations of 5, 10, 20, 30, and 60 μM (6, 12, 25, 37 and 74 μg/ml, respectively). Negative controls without CAY-1 were included. Cells were exposed to the saponin for 1 hour. Supernatants from each well were transferred into another 96-well plate. The remaining cells were lysed using a 2% Triton solution. Glacial acetic acid was then added to supernatants and lysates, and absorbance was read at A540.

HeLa cells = experiment: Mammalian cytotoxicity, HeLa cells (neutral red); format: cell-based, Human; conditions: at concentrations effective against the fungi and yeast
Method: as §4

[2] = nongerminated, RPMI-1640, 5.0 μM
[3] = nongerminated, RPMI-1640, 10.0 μM
[4] = nongerminated, RPMI-1640, 15.0 μM
[5] = nongerminated, RPMI-1640, 20.0 μM
[6] = nongerminated conidia, either test medium

`CC1CCC2(OC1)OC1CC3C4CCC5CC(OC6OC(CO)C(OC7OC(CO)C(O)C(OC8OC(CO)C(O)C(OC9OC(CO)C(O)C(O)C9O)C8O)C7OC7OC(CO)C(O)C(O)C7O)C(O)C6O)C(O)CC5(C)C4CCC3(C)C1C2C` (centres unmarked) [CAY-1] gave an activity at 5 µM (Aspergillus parasiticus; germinated, RPMI-1640, 5.0 μM) of 56.6%, an activity at 10 µM (Aspergillus parasiticus; germinated, RPMI-1640, 10.0 μM) of 17.5% and an activity at 15 µM (Aspergillus parasiticus; germinated, RPMI-1640, 15.0 μM) of 12.7%. For the same molecule, the activity at 20 µM (Aspergillus parasiticus; germinated, RPMI-1640, 20.0 μM) was 8.1%, the activity at 5 µM (Aspergillus parasiticus; germinating, 1% PDB, 5.0 μM) was 61.9% and the activity at 10 µM (Aspergillus parasiticus; germinating, 1% PDB, 10.0 μM) was 28%. For the same molecule, the activity at 15 µM (Aspergillus parasiticus; germinating, 1% PDB, 15.0 μM) was 21%, the activity at 20 µM (Aspergillus parasiticus; germinating, 1% PDB, 20.0 μM) was 16.5% and the activity at 5 µM (Aspergillus parasiticus; nongerminated, 1% PDB, 5.0 μM) was 97.3%. The activity at 10 µM (Aspergillus parasiticus; nongerminated, 1% PDB, 10.0 μM) was 100%, the activity at 15 µM (Aspergillus parasiticus; nongerminated, 1% PDB, 15.0 μM) was 93.9% and the activity at 20 µM (Aspergillus parasiticus; nongerminated, 1% PDB, 20.0 μM) was 94.5%. It also gave an activity at 5 µM (Aspergillus parasiticus; [2]) of 103%, an activity at 10 µM (Aspergillus parasiticus; [3]) of 103% and an activity at 15 µM (Aspergillus parasiticus; [4]) of 87.9%. The activity at 20 µM (Aspergillus parasiticus; [5]) was 97.6%, the minimal effective concentration (Aspergillus parasiticus; read-out: concentration required for significant viability reduction) was 12.4 µg/mL and the minimal effective concentration (Aspergillus parasiticus; germinating conidia, 1% PDB, p=0.001, read-out: concentration significantly reducing viability) was 5 µM and 6.2 µg/mL. The minimal effective concentration (Aspergillus parasiticus; germinating conidia, RPMI-1640, p=0.0002, read-out: concentration required for significant viability reduction) was 10 µM, the “Mean No. of Colonies” value (Aspergillus parasiticus; germinated, RPMI-1640, 5.0 μM) was 40.1 and the “Mean No. of Colonies” value (Aspergillus parasiticus; germinated, RPMI-1640, 10.0 μM) was 12.4. The “Mean No. of Colonies” value (Aspergillus parasiticus; germinated, RPMI-1640, 15.0 μM) was 9.0, the “Mean No. of Colonies” value (Aspergillus parasiticus; germinated, RPMI-1640, 20.0 μM) was 5.7 and the viability reduction (Aspergillus parasiticus; germinating conidia, 1% PDB) was 85%. For the same molecule, the viability reduction (Aspergillus parasiticus; germinating conidia, RPMI-1640) was 92%, the “Mean No. of Colonies” value (Aspergillus parasiticus; germinating, 1% PDB, 5.0 μM) was 95.5 and the “Mean No. of Colonies” value (Aspergillus parasiticus; germinating, 1% PDB, 10.0 μM) was 43.3. For the same molecule, the “Mean No. of Colonies” value (Aspergillus parasiticus; germinating, 1% PDB, 15.0 μM) was 32.5, the “Mean No. of Colonies” value (Aspergillus parasiticus; germinating, 1% PDB, 20.0 μM) was 25.5 and the “viability of nongerminated conidia” value (Aspergillus parasiticus; [6]) was “not affected”. The “Mean No. of Colonies” value (Aspergillus parasiticus; nongerminated, 1% PDB, 5.0 μM) was 53.1, the “Mean No. of Colonies” value (Aspergillus parasiticus; nongerminated, 1% PDB, 10.0 μM) was 54.6 and the “Mean No. of Colonies” value (Aspergillus parasiticus; nongerminated, 1% PDB, 15.0 μM) was 51.3. The “Mean No. of Colonies” value (Aspergillus parasiticus; nongerminated, 1% PDB, 20.0 μM) was 51.9, the “Mean No. of Colonies” value (Aspergillus parasiticus; [2]) was 42.5 and the “Mean No. of Colonies” value (Aspergillus parasiticus; [3]) was 42.5. The “Mean No. of Colonies” value (Aspergillus parasiticus; [4]) was 36.4, the “Mean No. of Colonies” value (Aspergillus parasiticus; [5]) was 40.4 and the activity at 5 µM (Aspergillus niger; Aspergillus niger, 0.5 h, germinated, RPMI-1640, 5.0 μM) was 94.9%. For the same molecule, the activity at 10 µM (Aspergillus niger; Aspergillus niger, 0.5 h, germinated, RPMI-1640, 10.0 μM) was 86.2%, the activity at 15 µM (Aspergillus niger; Aspergillus niger, 0.5 h, germinated, RPMI-1640, 15.0 μM) was 93.9% and the activity at 20 µM (Aspergillus niger; Aspergillus niger, 0.5 h, germinated, RPMI-1640, 20.0 μM) was 85.4%. For the same molecule, the activity at 1 µM (Aspergillus niger; Aspergillus niger, 0.5 h, germinating, 1% PDB, 1.0 μM) was 118%, the activity at 2.5 µM (Aspergillus niger; Aspergillus niger, 0.5 h, germinating, 1% PDB, 2.5 μM) was 89.8% and the activity at 5 µM (Aspergillus niger; Aspergillus niger, 0.5 h, germinating, 1% PDB, 5.0 μM) was 18.2%. For the same molecule, the activity at 10 µM (Aspergillus niger; Aspergillus niger, 0.5 h, germinating, 1% PDB, 10.0 μM) was 12%, the activity at 15 µM (Aspergillus niger; Aspergillus niger, 0.5 h, germinating, 1% PDB, 15.0 μM) was 5.7% and the activity at 20 µM (Aspergillus niger; Aspergillus niger, 0.5 h, germinating, 1% PDB, 20.0 μM) was 3.9%. The activity at 1 µM (Aspergillus niger; Aspergillus niger, 0.5 h, nongerminated, 1% PDB, 1.0 μM) was 102%, the activity at 2.5 µM (Aspergillus niger; Aspergillus niger, 0.5 h, nongerminated, 1% PDB, 2.5 μM) was 96.6% and the activity at 5 µM (Aspergillus niger; Aspergillus niger, 0.5 h, nongerminated, 1% PDB, 5.0 μM) was 118%. For the same molecule, the activity at 10 µM (Aspergillus niger; Aspergillus niger, 0.5 h, nongerminated, 1% PDB, 10.0 μM) was 92.7%, the activity at 15 µM (Aspergillus niger; Aspergillus niger, 0.5 h, nongerminated, 1% PDB, 15.0 μM) was 116% and the activity at 20 µM (Aspergillus niger; Aspergillus niger, 0.5 h, nongerminated, 1% PDB, 20.0 μM) was 64.4%. For the same molecule, the activity at 5 µM (Aspergillus niger; Aspergillus niger, 0.5 h, nongerminated, RPMI-1640, 5.0 μM) was 76.8%, the activity at 10 µM (Aspergillus niger; Aspergillus niger, 0.5 h, nongerminated, RPMI-1640, 10.0 μM) was 87.7% and the activity at 15 µM (Aspergillus niger; Aspergillus niger, 0.5 h, nongerminated, RPMI-1640, 15.0 μM) was 83.8%. The activity at 20 µM (Aspergillus niger; Aspergillus niger, 0.5 h, nongerminated, RPMI-1640, 20.0 μM) was 104%, the IC95 (Aspergillus niger; Aspergillus niger, 0.5 h, read-out: LD95) was 15 µM and 18.6 µg/mL and the minimal effective concentration (Aspergillus niger; Aspergillus niger, 0.5 h, read-out: concentration achieving significant lethality) was 5 µM and 6.2 µg/mL. For the same molecule, the “Mean No. of Colonies” value (Aspergillus niger; germinated, RPMI-1640, 5.0 μM) was 50.1, the “Mean No. of Colonies” value (Aspergillus niger; germinated, RPMI-1640, 10.0 μM) was 45.5 and the “Mean No. of Colonies” value (Aspergillus niger; germinated, RPMI-1640, 15.0 μM) was 49.6. For the same molecule, the “Mean No. of Colonies” value (Aspergillus niger; germinated, RPMI-1640, 20.0 μM) was 45.1, the “lethality to germinating conidia” value (Aspergillus niger; germinating conidia, RPMI-1640) was “no effect was observed” and the “Mean No. of Colonies” value (Aspergillus niger; germinating, 1% PDB, 1.0 μM) was 60.4. The “Mean No. of Colonies” value (Aspergillus niger; germinating, 1% PDB, 2.5 μM) was 45.8, the “Mean No. of Colonies” value (Aspergillus niger; germinating, 1% PDB, 5.0 μM) was 9.3 and the “Mean No. of Colonies” value (Aspergillus niger; germinating, 1% PDB, 10.0 μM) was 6.1. For the same molecule, the “Mean No. of Colonies” value (Aspergillus niger; germinating, 1% PDB, 15.0 μM) was 2.9, the “Mean No. of Colonies” value (Aspergillus niger; germinating, 1% PDB, 20.0 μM) was 2.0 and the “viability of nongerminated conidia” value (Aspergillus niger; [6]) was “not affected”. The “Mean No. of Colonies” value (Aspergillus niger; nongerminated, 1% PDB, 1.0 μM) was 36.5, the “Mean No. of Colonies” value (Aspergillus niger; nongerminated, 1% PDB, 2.5 μM) was 34.5 and the “Mean No. of Colonies” value (Aspergillus niger; nongerminated, 1% PDB, 5.0 μM) was 42.3. The “Mean No. of Colonies” value (Aspergillus niger; nongerminated, 1% PDB, 10.0 μM) was 33.1, the “Mean No. of Colonies” value (Aspergillus niger; nongerminated, 1% PDB, 15.0 μM) was 41.5 and the “Mean No. of Colonies” value (Aspergillus niger; nongerminated, 1% PDB, 20.0 μM) was 23.0. For the same molecule, the “Mean No. of Colonies” value (Aspergillus niger; [2]) was 37.5, the “Mean No. of Colonies” value (Aspergillus niger; [3]) was 42.8 and the “Mean No. of Colonies” value (Aspergillus niger; [4]) was 40.9. The “Mean No. of Colonies” value (Aspergillus niger; [5]) was 51.0, the MCC at 1 h [1] was 30 µM and 37 µg/mL and the cytotoxicity at 1 h, 30 µM [1] was roughly 13%. For the same molecule, the cytotoxicity at 1 h, 60 µM [1] was roughly 32% and the “lethality to mammalian cells” value (HeLa cells) was “not lethal”.
